From patent US6048872A, “Arylethanolamine derivatives and their use as agonists of atypical beta-adrenoceptors” (Glaxo Wellcome Inc., priority 1995, dated 2000)
Where a name gives a salt, the structure may show the parent alone.

How the values were obtained:
[1] = biological target: T1, human beta-3-adrenoceptor (Homo sapiens, UniProt P13945); experiment: cAMP accumulation in CHO cells transfected with the human beta-3-adrenoceptor (Method 1), potency relative to isoprenaline; assay type: cell-based; settings: relative potency of test agonist compared to isoprenaline (EC50 ratio), H β3 CHO cells
T1 construct: whole-cell cAMP accumulation, potency relative to isoprenaline
Experimental: […] The cell lines may also be transfected with human beta-1- and beta-2- adrenoceptor in a similar manner to provide a method of determining the selectivity of the compounds of the invention at the three receptors.
General cell culture guidelines are observed (Fershney, R. A. (1987) Culture of animal cells: A manual of basic technique. Wiley-Liss, Inc., N.Y.). A standard cell culture incubator is used (37° C., 5% CO2 in air, 95% relative humidity). H β3 CHO cells are grown in 75 ml flasks in MEMα medium containing 9% FCS & 125 μg/ml G418. One confluent flask of cells is trypsinised and resuspended in 80 ml of culture medium; 1 ml of the cell suspension is added to each well of three 24-well plates. The plates are then incubated for 1 day.
The medium is aspirated from each well, and the well rinsed with phosphate-buffered saline (PBS, this is then aspirated). 1 ml of MEMα (no FCS or G418, 300μ M IBMX) is added to each well. Antagonists, if required, are added at this stage. The plate is then placed back in the incubator for 30 min. Drugs are then added to the wells (10 μl, 100x required final concentration), the plate gently swirled to mix the drugs, and the plate placed back in the incubator for 30 min. The medium is then aspirated from each well, the well rinsed with PBS, and 0.5 ml perchloric acid (6% v/v in distilled water, 2-5° C.). The plate is left on ice for 30 min. The perchloric acid (containing cAMP) is transferred to a clean 24-well plate and the acid neutralised by addition of saturated KHCO3 solution (200 μl) to each well. The plate is then swirled and frozen (-20° C.) until cAMP is assayed. cAMP is assayed using an enzyme-immunoassay kit (Amersham).
The relative potency of each test agonist (EPMR) is compared to isoprenaline as follows: [formula] wherein EC50 is the molar concentration of agonist which produces 50% of the maximum possible response for that agonist.

[2] = system: indomethacin-induced antral damage; experiment: Protective effect on indomethacin-induced gastric antral lesions in the re-fed rat (Method 2); assay type: in vivo; settings: po, rats dosed orally 30 minutes before indomethacin 60 mg/kg s.c., antral damage assessed at 6 hours post dose
Experimental: […] The procedure is based upon that described by H. Satoh et. al., Gastroenterology, 81, 719-725 (1981) in which the effect of compounds on indomethacin-induced gastric antral lesions in the re-fed rat is investigated. Indomethacin is an example of the class of compound known as non-steroidal anti-inflammatory drugs (NSAIDs), the use of which is frequently associated with gastrointestinal ulcers.
Food (but not water) is withheld from female random hooded rats (70-120 g) for 24 hours and then the rats are re-fed with Rat and Mouse No. 1 Maintenance Diet. After 1 hour of access to food, the rats are dosed orally with either the test compound or solvent (0.5% w/v methyl cellulose in water). […]
The rat's stomach is removed (with a small amount of duodenum attached), opened along the greater curvature and the contents removed by washing with 0.9% w/v sodium chloride solution (saline). The opened stomach is pinned out (mucosal surface uppermost) on a polystyrene mat and the area of damage assessed by placing a grid (composed of 1 mm squares) over the antral region. […] The total area of antral damage is then expressed as a percentage of the total surface area of the antrum.
The protective effect of the test compound on indomethacin-induced antral damage is calculated as a percentage using the following equation: [formula]

T1 sequence (P13945 whole entry): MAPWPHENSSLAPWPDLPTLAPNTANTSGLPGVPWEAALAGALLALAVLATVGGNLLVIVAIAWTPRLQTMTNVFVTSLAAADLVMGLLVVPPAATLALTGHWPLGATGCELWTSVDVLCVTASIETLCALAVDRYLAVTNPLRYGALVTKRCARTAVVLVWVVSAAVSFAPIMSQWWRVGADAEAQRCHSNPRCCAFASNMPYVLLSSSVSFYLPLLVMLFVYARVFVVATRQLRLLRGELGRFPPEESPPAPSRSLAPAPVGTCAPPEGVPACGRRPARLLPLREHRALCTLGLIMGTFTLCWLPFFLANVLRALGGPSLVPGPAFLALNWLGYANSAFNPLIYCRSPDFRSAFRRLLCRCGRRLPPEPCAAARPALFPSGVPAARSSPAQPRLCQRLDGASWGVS

| EPMR [1] | SMILES | ED50 [2] |
| --- | --- | --- |
| 0.2 | C[C@H](CNc1ccc(CC(=O)O)c(F)c1F)NC[C@H](O)c1cccc(Cl)c1 [Example 7, (4-{2R-[2-(3-Chloro-phenyl)-2R-hydroxyl-ethylamino]-propylamino}-2,3-difluoro-phenyl)-acetic acid] | 3 µg/kg |
| 0.4 | COc1cc(NC[C@@H](C)NC[C@H](O)c2cccc(Cl)c2)c(Cl)cc1CC(=O)O [Example 8, (5-Chloro-4-{2R-[2-(3-chloro-phenyl)-2R-hydroxy-ethylaminol-propylamino}-2-methoxy-phenyl)-acetic acid dihydrochloride] | – |
| 6.0 | C[C@H](CNc1cc(F)c(OCC(=O)O)c(F)c1)NC[C@H](O)c1cccc(Cl)c1 [Example 15, (4-{2R-[2-(3-Chloro-phenyl)-2R-hydroxy-ethylamino]-propylamino}-2,6-difluoro-phenoxy)-acetic acid] | – |
